Data from ChEMBL document CHEMBL5154799, “Discovery of a Novel Stilbene Derivative as a Microtubule Targeting Agent Capable of Inducing Cell Ferroptosis” (J Med Chem, 2022).
Where a name gives a salt, the structure may show the parent alone. Activity calls are given as the source filed them. The calls are words filed in the database; no cut-off is given here.

Key:
[1] = Resistance index, ratio of IC50 for antiproliferative activity against human vincristine-resistant HCT-8/VCR cells to IC50 for antiproliferative activity against HCT-8 cells; format: functional
A549 [2] = assay: Antiproliferative activity against human adriamycin-resistant A549/ADR cells assessed as cell viability incubated for 48 hrs by MTT assay; format: functional, cell-based; conditions: A549, 48 h
HCT-8 [3] = assay: Antiproliferative activity against human HCT-8 cells assessed as cell viability incubated for 48 hrs by MTT assay; format: functional, cell-based; conditions: HCT-8, 48 h
A549 [4] = assay: Resistance index, ratio of IC50 for antiproliferative activity against human adriamycin-resistant A549/ADR cells to IC50 for antiproliferative activity against human A549 cells; format: functional
A2780 [5] = assay: Antiproliferative activity against human paclitaxel-resistant A2780/TAX cells assessed as cell viability incubated for 48 hrs by MTT assay; format: functional, cell-based; conditions: A2780, 48 h
A2780 [6] = assay: Antiproliferative activity against human A2780 cells assessed as cell viability incubated for 48 hrs by MTT assay; format: functional, cell-based; conditions: A2780, 48 h
[7] = Resistance index, ratio of IC50 for antiproliferative activity against human paclitaxel-resistant A2780/TAX cells to IC50 for antiproliferative activity against human A2780 cells; format: functional
A549 [8] = assay: Antiproliferative activity against human A549 cells assessed as cell viability incubated for 48 hrs by MTT assay; format: functional, cell-based; conditions: A549, 48 h
HCT-8 [9] = assay: Antiproliferative activity against human vincristine-resistant HCT-8/VCR cells assessed as cell viability incubated for 48 hrs by MTT assay; format: functional, cell-based; conditions: HCT-8, 48 h
A549 [10] = assay: Induction of ferroptosis in human A549 cells assessed as depletion of GSH levels at 10 uM upto 12 hrs; format: functional, cell-based
A549 [11] = assay: In vivo antitumor activity against human A549 cells xenografted in athymic nude BALB/c mouse assessed as tumor volume at 10 mg/kg measured after 30 days (reference value: 1503.3 mm^3); format: functional; conditions: time 30 day
A549 [12] = assay: Induction of cell death in human A549 cells assessed as vanished mitochondrial cristae at 10 uM for 12 hrs by TEM analysis; format: functional, cell-based
A549 [13] = assay: In vivo antitumor activity against human A549 cells xenografted in athymic nude BALB/c mouse assessed as tumor growth inhibition at 10 mg/kg measured after 30 days relative to control; format: functional; conditions: A549, 720 h, time 30 day, read-out: TGI
A549 [14] = assay: Induction of cell death in human A549 cells assessed as increased mitochondrial membrane density at 10 uM for 12 hrs by TEM analysis; format: functional, cell-based
A549 [15] = assay: In vivo antitumor activity against human A549 cells xenografted in athymic nude BALB/c mouse assessed as tumor weight at 10 mg/kg measured after 30 days (reference value: 1 gram); format: functional; conditions: time 30 day
MCF7 = assay: Antiproliferative activity against human MCF7 cells assessed as cell viability incubated for 48 hrs by MTT assay; format: functional, cell-based; conditions: MCF7, 48 h
A549 [16] = assay: Induction of apoptosis in human A549 cells assessed as cell viability pretreated with ferroptosis inhibitor ferrostatin-1 for 24 hrs followed by incubation with compound at 100 nM and measured after 48 hrs by CCK-8 assay; format: functional, cell-based
A549 [17] = assay: Induction of apoptosis in human A549 cells assessed as early apoptotic cells at 50 nM incubated for 24 hrs by annexin V-FITC/PI staining based flow cytometry analysis; format: functional, cell-based
HeLa = assay: Antiproliferative activity against human HeLa cells assessed as cell viability incubated for 48 hrs by MTT assay; format: functional, cell-based
A549 [18] = assay: Induction of apoptosis in human A549 cells assessed as cell viability pretreated with ferroptosis inhibitor desferoxamine for 24 hrs followed by incubation with compound at 100 nM and measured after 48 hrs by CCK-8 assay; format: functional, cell-based
A549 [19] = assay: Induction of apoptosis in human A549 cells assessed as cell viability pretreated with caspase inhibitor Z-VAD-FMK for 24 hrs followed by incubation with compound at 100 nM and measured after 48 hrs by CCK-8 assay; format: functional, cell-based
A549 [20] = assay: Induction of apoptosis in human A549 cells assessed as cell viability pretreated with necroptosis inhibitor necrostatin-I for 24 hrs followed by incubation with compound at 100 nM and measured after 48 hrs by CCK-8 assay; format: functional, cell-based
A549 [21] = assay: Induction of apoptosis in human A549 cells assessed as cell viability pretreated with autophagy inhibitor 3-methyladenine for 24 hrs followed by incubation with compound at 100 nM and measured after 48 hrs by CCK-8 assay; format: functional, cell-based
A549 [22] = assay: Induction of apoptosis in human A549 cells assessed as cell viability pretreated with caspase inhibitor Z-VAD-FMK for 24 hrs followed by incubation with compound at 200 nM and measured after 48 hrs by CCK-8 assay; format: functional, cell-based
A549 [23] = assay: Induction of apoptosis in human A549 cells assessed as cell viability pretreated with autophagy inhibitor 3-methyladenine for 24 hrs followed by incubation with compound at 200 nM and measured after 48 hrs by CCK-8 assay; format: functional, cell-based
A549 [24] = assay: Induction of apoptosis in human A549 cells assessed as cell viability pretreated with ferroptosis inhibitor desferoxamine for 24 hrs followed by incubation with compound at 200 nM and measured after 48 hrs by CCK-8 assay; format: functional, cell-based
A549 [25] = assay: Induction of apoptosis in human A549 cells assessed as cell viability pretreated with ferroptosis inhibitor ferrostatin-1 for 24 hrs followed by incubation with compound at 200 nM and measured after 48 hrs by CCK-8 assay; format: functional, cell-based
A549 [26] = assay: Induction of apoptosis in human A549 cells assessed as cell viability pretreated with necroptosis inhibitor necrostatin-I for 24 hrs followed by incubation with compound at 200 nM and measured after 48 hrs by CCK-8 assay; format: functional, cell-based
A549 [27] = assay: Induction of apoptosis in human A549 cells assessed as apoptotic body formation incubated for 24 hrs […]; format: functional, cell-based
A549 [28] = assay: Induction of apoptosis in human A549 cells assessed as nucleic fragmentation incubated for 24 hrs by CCK-8 assay; format: functional, cell-based
A549 [29] = assay: Induction of cell death in human A549 cells assessed as vanished mitochondrial cristae at 200 nM for 12 hrs by TEM analysis; format: functional, cell-based
Tubulin [30] = assay: Inhibition of tubulin polymerization (unknown origin) assessed as fluorescence intensity emission at 410 nm for 60 mins; format: protein-complex assay, Homo sapiens
Tubulin [31] = assay: Inhibition of [3H]colchicine binding to tubulin (unknown origin) by competitive binding assay; format: protein-complex assay, Homo sapiens
A549 [32] = assay: Induction of cell death in human A549 cells assessed as increased mitochondrial membrane density at 200 nM for 12 hrs by TEM analysis; format: functional, cell-based
A549 [33] = assay: Induction of apoptosis in human A549 cells assessed as chromatin condensation incubated for 24 hrs by CCK-8 assay; format: functional, cell-based
A549 [34] = assay: Induction of apoptosis in human A549 cells assessed as cell rounding incubated for 24 hrs […]; format: functional, cell-based

SMILES	IC50 (HCT-8 [3]) [µM]	IC50 (A2780 [6]) [µM]	IC50 (A549 [8]) [µM]	IC50 (MCF7) [µM]	IC50 (HeLa) [µM]	further results
CC[C@]1(O)C[C@H]2CN(CCc3c([nH]c4ccccc34)[C@@](C(=O)OC)(c3cc4c(cc3OC)N(C=O)[C@H]3[C@@](O)(C(=O)OC)[C@H](OC(C)=O)[C@]5(CC)C=CCN6CC[C@]43[C@@H]65)C2)C1 [VINCRISTINE]	0.35	0.03	0.06	–	–	Ratio IC50 [1]: 22.46; IC50 (A549 [2]): 0.56 µM; Ratio IC50 (A549 [4]): 9.33; IC50 (A2780 [5]): 0.17 µM; Ratio IC50 [7]: 5.67; IC50 (HCT-8 [9]): 7.86 µM
CCOc1ccccc1-n1c(C(C)N2CCN(C(=O)COc3ccc(Cl)cc3)CC2)nc2ccccc2c1=O (stereo not drawn) [ERASTIN]	–	–	–	–	–	Activity (A549 [10]): Active; Activity (A549 [11]): 1339.4 mm3; Activity (A549 [12]): Active; inhibition in vivo at 10 mg/kg (A549 [13]): 10.9%; Activity (A549 [14]): Active; Activity (A549 [15]): 0.89 g
COc1ccc(C(=O)c2ccc(OC)c3c2OC(C)(C)C=C3)c(NC(=O)CO)c1	0.23	0.1	0.08	0.32	0.1	Activity (A549 [16]): Active; Activity (A549 [17]): Active; Activity (A549 [18]): Active; Activity (A549 [19]): Active; Activity (A549 [20]): Active; Activity (A549 [21]): Active
C=C(c1cc(OC)c(OC)c(OC)c1)c1ccc(OC)c(O)c1NC(=O)COC	0.28	0.45	0.19	0.56	0.33	Activity (A549 [22]): Active; Activity (A549 [23]): Active; Activity (A549 [24]): Active; Activity (A549 [25]): Active; Activity (A549 [26]): Active
COc1cccc2c1C(=O)c1c(O)c3c(c(O)c1C2=O)C[C@@](O)(C(=O)CO)C[C@@H]3O[C@H]1C[C@H](N)[C@H](O)[C@H](C)O1 [DOXORUBICIN HYDROCHLORIDE]	3.98	2.03	–	–	–	IC50 (A549 [2]): 12.5 µM; IC50 (A2780 [5]): 2.69 µM; IC50 (HCT-8 [9]): 21.6 µM
C=C(c1cc(OC)c(OC)c(OC)c1)c1ccc(OC)c(O)c1NC(C)=O	0.34	0.17	0.08	0.27	0.09	Activity (A549 [16]): Active; Activity (A549 [18]): Active; Activity (A549 [19]): Active; Activity (A549 [20]): Active; Activity (A549 [21]): Active
COc1ccc(C(=O)c2cc(OC)c(OC)c(OC)c2)cc1O [PHENSTATIN]	0.36	0.11	–	0.96	0.22	Activity (A549 [27]): Active; Activity (A549 [28]): Active; Activity (A549 [29]): Active; IC50 (Tubulin [30]): 2.94 µM; IC50 (Tubulin [31]): 3.03 µM; Activity (A549 [32]): Active; Activity (A549 [33]): Active; Activity (A549 [34]): Active
C=C(c1ccc2c(c1)C=CC(C)(C)O2)c1ccc(OC)cc1NC(=O)CO	0.22	0.11	0.04	0.39	0.1	–
C=C(c1cc(OC)c(OC)c(OC)c1)c1ccc(OC)cc1NC(=O)CN(C)C	0.34	0.24	0.13	0.39	0.37	–
C=C(c1ccc(OC)cc1NC(=O)CN)c1ccc(OC)c2c1C=CC(C)(C)O2	0.52	0.4	0.09	0.78	0.2	–
COc1ccc(C(=O)c2cc(OC)c(OC)c(OC)c2)c(NC(=O)CO)c1	0.12	0.1	0.07	0.23	0.07	Activity (A549 [16]): Active; Activity (A549 [17]): Active; Activity (A549 [18]): Active; Activity (A549 [19]): Active; Activity (A549 [20]): Active; Activity (A549 [21]): Active
COc1ccc(C(=O)c2ccc(OC)c3c2C=CC(C)(C)O3)c(NC(=O)CBr)c1	4.36	2.15	2.46	3.29	3.68	–
C=C(c1ccc(OC)cc1NC(=O)CN)c1ccc(OC)c2c1OC(C)(C)C=C2	0.19	0.08	0.05	0.22	0.12	–
CC(=O)O[C@H]1C(=O)[C@@]2(C)[C@H]([C@H](OC(=O)c3ccccc3)[C@]3(O)C[C@H](OC(=O)[C@H](O)[C@@H](NC(=O)c4ccccc4)c4ccccc4)C(C)=C1C3(C)C)[C@]1(OC(C)=O)CO[C@@H]1C[C@@H]2O [PACLITAXEL]	0.02	–	0.03	–	–	IC50 (A549 [2]): 0.07 µM; IC50 (HCT-8 [9]): 0.13 µM
C=C(c1ccc(OC)cc1NC(=O)CO)c1ccc(OC)c2c1C=CC(C)(C)O2	0.47	0.28	0.07	0.59	0.1	–
COc1ccc(C(=O)c2ccc(OC)c3c2OC(C)(C)C=C3)c(NC(=O)CN(C)C)c1	1.59	0.79	0.89	2.68	1.05	–
